Experimental data reported in US20140017701A1, “CHIMERIC PDK1 KINASES” (priority 2011, published 2014).

Biological target: T1, GST-PDK1 1-556 with PIF-pocket mutated to mimic PKCz (Homo sapiens, UniProt O15530, F157L/I118V/I119H/L113V/R131K/T128Q/T148C/V124I)
T1 construct: a GST-PDK1 1-556 (full length, without the dm mutation); made in house; host or cells: HEK293 (general method for GST-fused kinases)
T1 sequence (O15530 1-556 L113V/I118V/I119H/V124I/T128Q/R131K/T148C/F157L): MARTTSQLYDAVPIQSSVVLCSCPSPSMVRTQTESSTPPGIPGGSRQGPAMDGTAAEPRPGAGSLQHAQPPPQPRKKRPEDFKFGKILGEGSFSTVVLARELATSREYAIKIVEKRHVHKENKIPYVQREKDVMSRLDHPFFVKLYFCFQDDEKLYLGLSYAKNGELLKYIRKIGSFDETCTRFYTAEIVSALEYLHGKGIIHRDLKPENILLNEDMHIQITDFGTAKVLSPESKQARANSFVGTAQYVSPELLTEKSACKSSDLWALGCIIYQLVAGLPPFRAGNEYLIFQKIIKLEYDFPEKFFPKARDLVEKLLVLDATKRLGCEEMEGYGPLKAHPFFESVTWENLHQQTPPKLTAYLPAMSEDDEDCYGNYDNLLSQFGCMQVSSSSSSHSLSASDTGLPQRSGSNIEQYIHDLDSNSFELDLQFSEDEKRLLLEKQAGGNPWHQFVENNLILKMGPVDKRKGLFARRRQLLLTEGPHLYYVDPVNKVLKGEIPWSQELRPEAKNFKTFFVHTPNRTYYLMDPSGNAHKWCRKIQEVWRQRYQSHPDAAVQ
Experiment: Activity assay with full length GST-PDK1 1-556 mutated to mimic the PIF-pocket of PKCz
Format: biochemical
Conditions: without the dm mutation
Source text: Thus, non-mutated PDK1 50-359 protein and other constructs of PDK1 lacking the (dm) mutations, when mutated at the PIF-pocket to mimic the PIF-pocket of other AGC kinases, are also expected to transduce the conformational change similarly to the dmPDK1 50-359. […] The preferred construct for mutagenesis to create the chimeric proteins is dmPDK1 50-359. Also preferred is the use of PDK1 50-359 which can be produced in high quality for crystallization studies or other suitable constructs, for example PDK1 76-359 that corresponds to a sequence of aminoacids observed in the crystals of PDK1 in different crystal packings.

Effect on activity of GST-PDK1 1-556 mutated to mimic PIF-pocket of PKCz: inhibited
SMILES: Cl.O=C(O)CC(Cc1nc2cc(-c3ccccc3)ccc2[nH]1)c1ccc(Cl)cc1 (stereo not shown) [PS168]
